Experimental data published in US20050048007A1, “Plaque reducing composition” (INOBYS LTD., priority 2000, published 2005).
Converted amounts (≈) assume the structure as drawn.

Experiments:
Test in all cases: MIC by serial dilutions in BHI broth (NCCLS)
Type in all cases: cell-based
S. mutans = conditions: Streptococcus mutans, 37.5 degrees C., 24 hr, turbidity
Text: (§1) Efficacy of this delivery system was shown as follows: 1. Minimum Inhibitory Concentration (MIC)
(§2) High numbers of microorganisms inhabit the oral cavity. Aerobic and anerobic bacteria combine to produce plaque, the soft sticky film adhering to the surface of the teeth. These same bacteria produce sulfur compounds responsible for oral malodor. MIC studies are commonly used to evaluate the potential effectiveness of oral washes and rinses in reducing undesirable bacteria in the oral cavity.
(§3) This […] study evaluates and compares the minimum inhibitory concentration at which two antimicrobial preparations (Solutions A & B) prevent the growth of oral microorganisms recognized as typical of those responsible for plaque and oral malodor formation. Solution A represents Example 1 (above); solution B, 0.1% chlorhexidine, represents a bench mark for efficacy, in that it is commonly accepted and used by oral care professionals to reduce plaque and malodor causing microbes.
(§4) MICs were established using the method of serial dilutions in BHI broth as established by NCCLS (National Committee for Clinical Laboratory Standards). Viable isolates of select strains of oral microbes were obtained commercially and cultured for ongoing use in the study. Serial dilutions of each of the test solutions were added to test tubes containing cultures of each isolate in BHI broth. Tubes were incubated at 37.5 degrees C. for 24 hr. and evaluated for signs of microbial growth (turbidity). Blank tubes of BHI broth, with and without microbial inoculates, were concomitantly run as a control for process sterility and viability.

K. pneumonia = conditions: Klebsiella pneumoniae, 37.5 degrees C., 24 hr, turbidity
Text: as §1, §2, §3, §4

S. sobrinus = conditions: Streptococcus sobrinus, 37.5 degrees C., 24 hr, turbidity
Text: as §1, §2, §3, §4

A. viscosus = conditions: Actinomyces viscosus, 37.5 degrees C., 24 hr, turbidity
Text: as §1, §2, §3, §4

V. atypica = conditions: 37.5 degrees C., 24 hr, turbidity
Text: as §1, §2, §3, §4

S. sanguinis = conditions: Streptococcus sanguinis, 37.5 degrees C., 24 hr, turbidity
Text: as §1, §2, §3, §4

## [H]/N=C(\N/C(=N/[H])NCCCCCCNC(=N)NC(=N)Nc1ccc(Cl)cc1)Nc1ccc(Cl)cc1 [0.1% CHX, chlorhexidine]
S. mutans
  MIC: 320 µg/mL (≈ 633 µM)
K. pneumonia
  MIC: 650 µg/mL (≈ 1290 µM)
S. sobrinus
  MIC: 80 µg/mL (≈ 158 µM)
A. viscosus
  MIC: 320 µg/mL (≈ 633 µM)
V. atypica
  MIC: 160 µg/mL (≈ 317 µM)
S. sanguinis
  MIC: 80 µg/mL (≈ 158 µM)
